Source: patent US9943529B2, “Methods for reducing cellular proliferation and treating certain diseases” (BRIGHAM YOUNG UNIVERSITY, priority 2013, dated 2018)

Legend:
Conditions in all cases: 10 μM, 48 hours
OVCAR-5 = test system: OVCAR-5
UACC-62 = test system: UACC-62
LOX IMVI = test: NCI screen antiproliferative activity, sulforhodamine B, Melanoma panel; type: cell-based, human
PC-3 = test system: PC-3
MALME-3M = test: NCI screen antiproliferative activity, sulforhodamine B, Melanoma panel; type: cell-based, human
HOP-92 = test system: HOP-92
SNB-75 = test system: SNB-75
SK-MEL-28 = test system: SK-MEL-28
T-47D = test system: T-47D
SW-620 = test: NCI screen antiproliferative activity, sulforhodamine B, Colon Cancer panel; type: cell-based, human
HCC-2998 = test system: HCC-2998
NCI-H23 = test system: NCI-H23
ACHN = test system: ACHN
OVCAR-8 = test system: OVCAR-8
OVCAR-4 = test system: OVCAR-4
SR = test: NCI screen antiproliferative activity, sulforhodamine B, Leukemia panel; type: cell-based, human
MDA-MB-468 = test: NCI screen antiproliferative activity, sulforhodamine B, Breast Cancer panel; type: cell-based, human
Method: (§1) The antiproliferative activity of compounds were determined in the National Cancer Institute (NCI) screen (Drug. Dev. Res. 1995, 34, 91-109; J. Natl. Cancer Inst. 1990, 82, 1107-1112; Drug Dev. Res. 1995, 34, 91-109). For certain compounds, cells of approximately 60 different human cancer cell lines were incubated for 48 hours with five 10-fold dilutions of the tested compounds starting from 100 μM and then treated with sulforhodamine B dye. For other compounds, cells of approximately 60 different human cancer cell lines were incubated for 48 hours with a concentration of 10 μM test compound. The ratios of recorded optical densities relative to that of the control were plotted as a function of the common logarithm of the tested compound concentrations or growth percent (for single concentration tests). The interpolation between the points located above and below the 50% percentage growth provided 50% growth inhibition (GI50) values. Total growth inhibition (TGI) and 50% lethal concentrations (LC50) were also calculated using reported methods. A “-” means not tested and/or not-determined.

A549/ATCC = test system: A549/ATCC
NCI-H322M = test system: NCI-H322M
TK-10 = test system: TK-10
HS 578T = test: NCI screen antiproliferative activity, sulforhodamine B, Breast Cancer panel; type: cell-based, human
RXF 393 = test system: RXF 393
SF-268 = test system: SF-268
HOP-62 = test system: HOP-62
SK-MEL-5 = test: NCI screen antiproliferative activity, sulforhodamine B, Melanoma panel; type: cell-based, human
786-0 = test system: 786-0
BT-549 = test system: BT-549
K-562 = test: NCI screen antiproliferative activity, sulforhodamine B, Leukemia panel; type: cell-based, human
NCI-H522 = test system: NCI-H522
CAKI-1 = test system: CAKI-1
M14 = test system: M14
A498 = test: NCI screen antiproliferative activity, sulforhodamine B, Renal Cancer panel; type: cell-based, human
Method: as §1

MDA-MB-435 = test system: MDA-MB-435
HCT-116 = test system: HCT-116
HT29 = test system: HT29
MOLT-4 = test: NCI screen antiproliferative activity, sulforhodamine B, Leukemia panel; type: cell-based, human
COLO 205 = test: NCI screen antiproliferative activity, sulforhodamine B, Colon Cancer panel; type: cell-based, human
SNB-19 = test system: SNB-19
DU-145 = test system: DU-145
NCI/ADR-RES = test: NCI screen antiproliferative activity, sulforhodamine B, Ovarian Cancer panel; type: cell-based, human
Method: as §1

SK-OV-3 = test system: SK-OV-3
SF-539 = test system: SF-539
RPMI-8226 = test: NCI screen antiproliferative activity, sulforhodamine B, Leukemia panel; type: cell-based, human
HCT-15 = test system: HCT-15
UO-31 = test system: UO-31
KM12 = test: NCI screen antiproliferative activity, sulforhodamine B, Colon Cancer panel; type: cell-based, human
MDA-MB-231/ATCC = test system: MDA-MB-231/ATCC
SK-MEL-2 = test system: SK-MEL-2
NCI-H460 = test system: NCI-H460
OVCAR-3 = test system: OVCAR-3
CCRF-CEM = test: NCI screen antiproliferative activity, sulforhodamine B, Leukemia panel; type: cell-based, human
Method: as §1

HL-60(TB) = test: as above; type: cell-based, human
Method: as §1

NCI-H226 = test system: NCI-H226
MCF7 = test system: MCF7
IGROV1 = test system: IGROV1
SN12C = test system: SN12C

CCCCCCCCOC(=O)CC[C@@H](C)[C@H]1CC[C@H]2[C@@H]3[C@H](OC(=O)CCN)C[C@@H]4C[C@H](OC(=O)CCN)CC[C@]4(C)[C@H]3C[C@H](OC(=O)CCN)[C@]12C [CSA-44]
Growth Percent (OVCAR-5): 92.12% | Growth Percent (UACC-62): 103.61% | Growth Percent (LOX IMVI): 63.17% | Growth Percent (PC-3): 87.30% | Growth Percent (MALME-3M): 67.83% | Growth Percent (HOP-92): 40.75% | Growth Percent (SNB-75): 63.88% | Growth Percent (SK-MEL-28): 58.43% | Growth Percent (T-47D): 88.83% | Growth Percent (SW-620): 20.01% | Growth Percent (HCC-2998): 84.20% | Growth Percent (NCI-H23): 90.31% | Growth Percent (ACHN): 96.19% | Growth Percent (OVCAR-8): 69.53% | Growth Percent (OVCAR-4): 75.66% | Growth Percent (SR): −12.92% | Growth Percent (MDA-MB-468): 3.95% | Growth Percent (A549/ATCC): 81.31% | Growth Percent (NCI-H322M): 71.42% | Growth Percent (TK-10): 135.94% | Growth Percent (HS 578T): 79.51% | Growth Percent (RXF 393): 108.72% | Growth Percent (SF-268): 69.72% | Growth Percent (HOP-62): 37.66% | Growth Percent (SK-MEL-5): 96.98% | Growth Percent (786-0): 99.05% | Growth Percent (BT-549): 124.30% | Growth Percent (K-562): −74.53% | Growth Percent (NCI-H522): 10.80% | Growth Percent (CAKI-1): 107.94% | Growth Percent (M14): 84.43% | Growth Percent (A498): 130.78% | Growth Percent (MDA-MB-435): 74.13% | Growth Percent (HCT-116): 49.30% | Growth Percent (HT29): 39.62% | Growth Percent (MOLT-4): 26.15% | Growth Percent (COLO 205): 66.35% | Growth Percent (SNB-19): 115.74% | Growth Percent (DU-145): 74.35% | Growth Percent (NCI/ADR-RES): 100.83% | Growth Percent (SK-OV-3): 90.91% | Growth Percent (SF-539): 56.26% | Growth Percent (RPMI-8226): 77.75% | Growth Percent (HCT-15): 101.79% | Growth Percent (UO-31): 104.69% | Growth Percent (KM12): 77.75% | Growth Percent (MDA-MB-231/ATCC): 69.26% | Growth Percent (SK-MEL-2): 126.21% | Growth Percent (NCI-H460): 73.70% | Growth Percent (OVCAR-3): 107.53% | Growth Percent (CCRF-CEM): −37.46% | Growth Percent (HL-60(TB)): 43.69% | Growth Percent (NCI-H226): 89.76% | Growth Percent (MCF7): 10.84% | Growth Percent (IGROV1): 77.22% | Growth Percent (SN12C): 77.59%
